No end group written: not given here.
Experiments:
[1] = Fluorescence ANTS/DPX vesicle leakage assay in POPE/POPG/TOCL (72:23:5); conditions: POPE/POPG/TOCL (72:23:5) 100 nm vesicles, P/L ≈ 1:30, mixtures 1:1, 10 mM HEPES pH 7.5, 155 mM NaCl, 30 °C, 600 s, % of Triton-X-100 leakage, mean of n = 3
Description: It could be argued that POPC/POPG (3:1) is not the most appropriate model system to describe a bacterial membrane, which rarely contains PC lipids. We therefore also performed leakage in another lipid system, POPE/POPG/TOCL (72:23:5), which is a good model of E. coli membranes[45],[69],[70]. […] For all of the other mutants discussed below, leakage was also studied both in POPC/POPG as well as POPE/POPG/TOCL, but since the results (synergy or no synergy) were in all cases the same, the latter data will not be presented in the text. All leakage data in POPE/POPG/TOCL (72:23:5) for charge mutants are summarized in Supplementary Table S4.
Leakage of small unilamellar vesicles induced by the peptides was studied using a standard fluorescence assay.
The appropriate lipids for each experiment were dissolved in CHCl3, together with 0.02 mol-% Rhodamine-PE (Rh-PE). […] This stock suspension was subjected to 10 freeze-thaw cycles and then frozen. Appropriate aliquots of the stock lipid suspension were unfrozen each day and extruded (41 times) through polycarbonate membranes with 100 nm pore size, and stored at room temperature overnight. The fluorophore and quencher outside the vesicles were removed by size exclusion chromatography using spin-columns (Pierce centrifuge column, 2 ml, Life Technologies GmbH, Darmstadt, Germany) filled with Sephacryl 100-HR (2 min, 1500 × g). For elution, a 10 mM HEPES buffer (pH 7.5) was used, containing 155 mM NaCl to balance the osmolarity. After extrusion and removal of the external dye and quencher, the lipid concentration usually decreases. Therefore, before each set of measurements a rhodamine spectrum was recorded to determine the actual concentration of lipids, which was referenced to a spectrum taken of vesicles made by sonification without any subsequent treatment.
Fluorescence experiments were performed on a FluoroMax2 spectrofluorimeter (HORIBA Jobin Yvon, Unterhaching, Germany) equipped with a thermostated sample holder and magnetic stirrer, using an excitation wavelength of 355 nm, an emission wavelength of 508 nm, and slit widths of 5 nm. The peptide solutions were placed in elution buffer in a 1 cm standard cuvette at 30 °C. 100 s after the start of the measurement lipid vesicles were added, and the intensity of the fluorescence at 508 nm was recorded. The leakage was measured during 600 s after addition of vesicles, and the measurement was terminated after addition of Triton-X-100 (0.25% v/v), which dissolved the vesicles, and yielded 100% leakage. To determine the background signal of the vesicles themselves, several blanks were recorded per measurement set. From the leakage values of the peptides alone and of the mixture of two peptides a synergy factor SF was calculated:3 SF=L(A+B)/[L(A)+L(B)] Here, L(A) is the leakage found with peptide A alone, L(B) is the leakage found with peptide B alone, and L(A + B) is the leakage found with the mixture of peptides A and B. In all cases the P/L was the same for both peptides, alone and in the mixture, so that in the mixture the total P/L was twice that of the individual peptide measurements. […] Measurements were repeated three times and average values and standard deviations calculated for the leakage and the synergy factors. An average SF ≥ 2 was taken to indicate synergy.

S. aureus DSM 1104 = assay: Checker-board assay (FICI); format: cell-based, Staphylococcus aureus; conditions: for FICI in combination with MAG2-WT: below 0.5 = synergistic activity
Procedure: A suitable method to study synergistic antimicrobial activity is the so-called checker-board assay, described in the Methods section. We performed such experiments on one Gram-negative bacterium, E. coli, and one Gram-positive one, S. aureus. From this method a fractional inhibitory concentration index (FICI) is determined, and when this is below 0.5, the peptides are said to have a synergistic effect against bacteria. This is the biologically relevant effect, but we are here interested in the atomistic details of the interactions behind the effect. Therefore we also use biophysical methods.
The antimicrobial activity of the peptides was investigated with a standard MIC assay[87],[88] on one Gram positive (Staphylococcus aureus, DSM 1104, ATCC 25923) and one Gram negative bacterial strain (Escherichia coli, DSM 1103, ATCC 25922). Bacteria were grown in Müller-Hinton medium (MH) at 37 °C and 220 rpm. Overnight cultures were inoculated from a single colony and grown for approximately 16 h. Day cultures were grown for approximately 3 h until they reached the exponential growth phase. These suspensions were diluted with MH-medium to a concentration of 10^6 colony-forming units (CFU) per ml. The microtiter plates (96 wells of 100 µL) were filled with 50 µL of MH, and serial 2-fold dilutions of each peptide were arranged in triplets along the columns. […] Two columns were filled with medium only, to serve as a positive control (bacteria), and as a negative control (no bacteria) to check for contamination of the medium. The bacterial suspension was added in 50 µL aliquots to each well, except for the negative control, to reach a final concentration of 5 × 10^5 CFU/ml. The plates were incubated for 22 h at 37 °C. To each well 20 µL of 0.2 mg/ml Resazurin solution was added and incubated for another two hours. The MIC value was determined visually, as the lowest peptide concentration which inhibited bacterial growth in at least two out of three columns.
To visualize synergy between different peptides, a two-dimensional dilution assay was used[89],[90]. The same bacterial strains were used as in the MIC assay. The procedure of preparing the bacterial suspensions was analogous to the MIC assay, but with a higher final concentration because the volumes in the two setups are different. The main plate (MP) was filled with 40 µl of MH, and serial 2-fold dilutions of the peptide were arranged in each row (8 rows × 7 columns). As described above, the first column was filled with doubly concentrated medium. On another plate (HP, help plate) a second peptide dilution assay was performed, but orthogonal to the main plate. The last row was left empty (7 rows × 8 columns). 40 µL of each well of the HP were transferred to each well of the MP (A1 → A1, etc.). Two columns were filled with medium only, to serve as a positive control (bacteria), and as a negative control (no bacteria) to check for contamination of the medium. The bacterial suspension was added in 20 µL aliquots to each well, except for the negative control, to reach a final concentration of 5 × 10^5 CFU/ml. The plates were incubated for 22 h at 37 °C. To each well 20 µL of 0.1 mg/ml Resazurin solution was added and incubated for another two hours. From these plates, it is possible to determine the MIC value for each of the two peptides, as well as the inhibitory values of the mixtures with 7 × 7 different peptide ratios. From these values, fractional inhibitory concentration indices (FICIs) were calculated with the following formula[89],[91]:1 FICI=[MIC(A)^comb/MIC(A)^alone]+[MIC(B)^comb/MIC(B)^alone] In this formula, MIC(A)^alone is the MIC value determined for peptide A alone, and MIC(A)^comb is the concentration of peptide A at the MIC determined for the combination. The same holds for peptide B. FICI values below 0.5 are taken to indicate a clear synergistic effect, values between 0.5 and 2 an additive effect, and values above 2 an antagonistic effect[89],[92].

[2] = Table S4 series (charge mutants)
[3] = Table S8 series (PGLa-to-MSI mutants)

| Substance | Leakage, mean value [1, 2] | FICI in combination with PGLa-WT (S. aureus DSM 1104) | Leakage, mean value [1, 3] | FICI in combination with MAG2-WT (S. aureus DSM 1104) | Leakage, mean value ([1]; Table S12 series (MSI-to-PGLa mutants)) |
| --- | --- | --- | --- | --- | --- |
| GIGKFLHSAKKFGKAFVGKIMNS-NH 2 (GIGKFLHSAKKFGKAFVGKIMNS-NH2) [MAG2-E19K-amide, amidated MAG2 E19K mutant] | 2.9% | above 0.5 |  |  |  |
| GIGKFLHSAKKFGKAFVGKIMNS-OH [MAG2-E19K, MAG2 charge mutant E19K] | 1.6% | above 0.5 |  |  |  |
| GMASKAGAIAGKIAKIAGKIA-NH2 [PtM-c1, PGLa to MSI-103 mutant, segment C replaced] |  |  | 1.5% | below 0.5 |  |
| GMASKAGKIAGKIAKVALKAL-NH2 (also: 15N-labeled Ala10) [PtM-A8K, PGLa single mutant A8K] |  |  | 7.1% | below 0.5 |  |
| GMASKIGAIAGKIAKVALKAL-NH2 (also: 15N-labeled Ala10) [PtM-A6I, PGLa single mutant A6I] |  |  | 3.7% | below 0.5 |  |
| KIAGKAGAIAGKIAKVALKAL-NH2 [PtM-a2, PGLa to MSI-103 mutant, three amino acids converted] |  |  | 4.5% | below 0.5 |  |
| KIAGKIGKIAGKIAKIAGKIA-NH2 [MtP-A7G, MSI-103 to PGLa single mutant A7G] |  |  |  | below 0.5 | 5.1% |

Reference: article PMC5640672, “Molecular mechanism of synergy between the antimicrobial peptides PGLa and magainin 2” (Scientific Reports, 2017)
